From publication PMC4847174, “C1, a highly potent novel curcumin derivative, binds to tubulin, disrupts microtubule network and induces apoptosis” (Bioscience Reports, 2016) come the findings set out here.

SMILES strings stand for the structures.

As a reminder, the Kd is a measure of binding affinity in units of concentration. Low values mean a tighter complex, high ones a looser complex.

Assay [1] has as its target T1, tubulin.
T1 construct: tubulin purified from goat brain
The experiment in a line: quenching of intrinsic tryptophan fluorescence; gel filtration co-elution; curcumin displacement; polymerization inhibition. In kind it is binding, Capra hircus. (In general: In gel filtration, larger molecules generally elute earlier.)

Assay [2] concerns the target T1, tubulin. Description: quenching of intrinsic tryptophan fluorescence. It is filed as binding, Capra hircus.

In assay [1], `COc1cc(/C=C/C(=O)C(=CC2CCN(C(=O)OC(C)(C)C)CC2)C(=O)/C=C/c2ccc(O)c(OC)c2)ccc1O` [C1, 4-{5-(4-hydroxy-3-methoxy-phenyl)-2-[3-(4-hydroxy-3-methoxy-phenyl)-acryloyl]-3-oxo-penta-1,4-dienyl}-piperidine-1-carboxylic acid tert-butyl ester] gave a dissociation constant Kd of 2800 ± 1000 nM.
For the compound `COc1cc(/C=C/C(=O)CC(=O)/C=C/c2ccc(O)c(OC)c2)ccc1O` [Curcumin], binding in assay [2] was put at a Kd of 5.2 ± 0.8 µM.
